Test results taken from US20150250172A1, “USE OF ANTHRANILAMIDE COMPOUNDS IN SOIL AND SEED TREATMENT APPLICATION METHODS” (BASF SE, priority 2012, published 2015).

Assays:
[1] = tested on: Black Cutworm (Agrotis ipsilon); test: whole plant or invertebrate; type: in vivo; conditions: 72 h, 5 ppm a.i./soil (w/w), second-instar larvae, 3 days after infestation, read-out: mortality in comparison with untreated controls
[2] = tested on: western corn rootworm (Chrysomelidae: Diabrotica virgifera virgifera); test: Plant emergence, shoot height and root mass, corn seed treatment against western corn rootworm (B.2.2); type: in vivo; conditions: for % Control (Based on root mass relative to infested and uninfested control) / % Control (Based on shoot height relative to infested and uninfested control) / Mean Root Mass / Mean Shoot Height: 7 days after infestation
Method: B.2.2 Plant Emergence, Shoot Height and Root Mass in Treatment Against Western Corn Rootworm (Chrysomelidae: Diabrotica virgifera virgifera). The compounds according to the invention, in formulated form, and other diamide compounds (chlorantraniliprole: Altacor® and Coragen®) were tested for activity against western corn rootworm. Pots were filled with soil mixture (1:1 loamy sand:sand) and watered prior to treatment and planting. Formulations were diluted in distilled water and then applied to 20 g corn seed in a volume of 188 μl in a Hege 11 liquid seed treater and spun for 30 s. One seed was planted per pot 1-3 days after treatment. Five replicates (pots) were prepared for each treatment. Pots were arranged in a randomized complete block design in the greenhouse and top watered daily. At 5-6 days after planting (DAP), 12 western corn rootworm larvae (2nd instar) were infested in each pot. After infestation, pots were maintained in a growth chamber (26° C., 10 hours light:14 hours dark) and bottom-watered as needed. Plant emergence and shoot phytotoxicity were evaluated 5 DAP. Shoot height and fresh root mass were evaluated 7 days after infestation (DAI).

[3] = tested on: Western Corn Rootworm (Diabrotica virgifera virgifera); test: whole plant or invertebrate; type: in vivo; conditions: 72 h, 50 ppm a.i./soil (w/w), second-instar larvae, 3 days after infestation, read-out: mortality in comparison with untreated controls
[4] = tested on: seedcorn maggot (Anthomyiidae: Delia platura); test: Root length of cucumber in treatment against seedcorn maggot (B.2.1); conditions: 9 days after treatment, 7 days after infestation; for % Control (Relative to infested and uninfested solvent blank): cucumber root length; for Mean Root Length: cucumber
[5] = Table EXP-B.2.2-1, 0.5 g ai/kg seed, 13 days after planting
[6] = Table EXP-B.2.2-1, 1.0 g ai/kg seed, 13 days after planting
[7] = Table EXP-B.2.2-1, corn seed treatment, 0.5 g ai/kg seed
[8] = Table EXP-B.2.2-1, corn seed treatment, 1.0 g ai/kg seed
[9] = Table EXP-B.2.2-2, 0.5 g ai/kg seed, 12 days after planting
[10] = Table EXP-B.2.2-2, 1.0 g ai/kg seed, 12 days after planting
[11] = Table EXP-B.2.2-2, corn seed treatment, 0.5 g ai/kg seed
[12] = Table EXP-B.2.2-2, corn seed treatment, 1.0 g ai/kg seed
[13] = Table EXP-B.2.2-2, 1.5 g ai/kg seed, 12 days after planting

CCS(CC)=NC(=O)c1cc(Cl)cc(Cl)c1NC(=O)c1cc(C(F)(F)F)nn1-c1ncccc1Cl [Compound I-16, 2-(3-chloro-2-pyridyl)-N-[2,4-dichloro-6-[(diethyl-λ^4-sulfanylidene)carbamoyl]phenyl]-5-(trifluoromethyl)pyrazole-3-carboxamide]
mortality at 5 ppm [1]: > 70% | % Control (Based on root mass relative to infested and uninfested control) [2, 5]: 37% | % Control (Based on shoot height relative to infested and uninfested control) [2, 5]: 76% | Mean Root Mass [2, 5]: 0.541 g | Mean Shoot Height [2, 5]: 30.2 cm | % Control (Based on root mass relative to infested and uninfested control) [2, 6]: 40% | % Control (Based on shoot height relative to infested and uninfested control) [2, 6]: 58% | Mean Root Mass [2, 6]: 0.547 g | Mean Shoot Height [2, 6]: 28.6 cm | Plant Emergence (%) 5 days after planting [2, 7]: 100% | Plant Emergence (%) 5 days after planting [2, 8]: 100% | % Control (Based on root mass relative to infested and uninfested control) [2, 9]: 38% | % Control (Based on shoot height relative to infested and uninfested control) [2, 9]: 100% | Mean Root Mass [2, 9]: 0.590 g | Mean Shoot Height [2, 9]: 35.3 cm | % Control (Based on root mass relative to infested and uninfested control) [2, 10]: 68% | % Control (Based on shoot height relative to infested and uninfested control) [2, 10]: 83% | Mean Root Mass [2, 10]: 0.705 g | Mean Shoot Height [2, 10]: 31.2 cm | Plant Emergence (%) 5 days after planting [2, 11]: 100% | Plant Emergence (%) 5 days after planting [2, 12]: 100% | mortality at 50 ppm [3]: > 70% | % Control (Relative to infested and uninfested solvent blank) ([4]; rate 1 ppm): 100% | Mean Root Length ([4]; rate 1 ppm): 11.0 cm

Cc1cc(Cl)cc(C(=O)N=S(C(C)C)C(C)C)c1NC(=O)c1cc(C(F)(F)F)nn1-c1ncccc1Cl [Compound I-21, 2-(3-chloro-2-pyridyl)-N-[2-methyl-4-chloro-6-[(bis-2-propyl-λ^4-sulfanylidene)carbamoyl]phenyl]-5-(trifluoromethyl)pyrazole-3-carboxamide]
mortality at 5 ppm [1]: > 70% | % Control (Based on root mass relative to infested and uninfested control) [2, 5]: 100% | % Control (Based on shoot height relative to infested and uninfested control) [2, 5]: 49% | Mean Root Mass [2, 5]: 0.688 g | Mean Shoot Height [2, 5]: 27.8 cm | % Control (Based on root mass relative to infested and uninfested control) [2, 6]: 100% | % Control (Based on shoot height relative to infested and uninfested control) [2, 6]: 69% | Mean Root Mass [2, 6]: 0.701 g | Mean Shoot Height [2, 6]: 29.6 cm | Plant Emergence (%) 5 days after planting [2, 7]: 100% | Plant Emergence (%) 5 days after planting [2, 8]: 100% | % Control (Based on root mass relative to infested and uninfested control) [2, 9]: 33% | % Control (Based on shoot height relative to infested and uninfested control) [2, 9]: 86% | Mean Root Mass [2, 9]: 0.570 g | Mean Shoot Height [2, 9]: 31.6 cm | % Control (Based on root mass relative to infested and uninfested control) [2, 13]: 40% | % Control (Based on shoot height relative to infested and uninfested control) [2, 13]: 83% | Mean Root Mass [2, 13]: 0.598 g | Mean Shoot Height [2, 13]: 31.2 cm | Plant Emergence (%) 5 days after planting [2, 11]: 100% | Plant Emergence (%) 5 days after planting ([2]; Table EXP-B.2.2-2, corn seed treatment, 1.5 g ai/kg seed): 100% | mortality at 50 ppm [3]: > 70%

CC(C)S(=NC(=O)c1cc(Cl)cc(Cl)c1NC(=O)c1cc(C(F)(F)F)nn1-c1ncccc1Cl)C(C)C [Compound I-26, 2-(3-chloro-2-pyridyl)-N-[2,4-dichloro-6-[(bis-2-propyl-λ^4-sulfanylidene)carbamoyl]phenyl]-5-(trifluoromethyl)pyrazole-3-carboxamide]
mortality at 5 ppm [1]: > 70% | mortality at 50 ppm [3]: > 70%

CCS(CC)=NC(=O)c1cc(Cl)cc(C)c1NC(=O)c1cc(C(F)(F)F)nn1-c1ncccc1Cl [Compound I-11, 2-(3-chloro-2-pyridyl)-N-[2-methyl-4-chloro-6-[(diethyl-λ^4-sulfanylidene)carbamoyl]phenyl]-5-(trifluoromethyl)pyrazole-3-carboxamide]
mortality at 5 ppm [1]: > 70% | % Control (Based on root mass relative to infested and uninfested control) [2, 5]: 100% | % Control (Based on shoot height relative to infested and uninfested control) [2, 5]: 36% | Mean Root Mass [2, 5]: 0.680 g | Mean Shoot Height [2, 5]: 26.7 cm | % Control (Based on root mass relative to infested and uninfested control) [2, 6]: 100% | % Control (Based on shoot height relative to infested and uninfested control) [2, 6]: 100% | Mean Root Mass [2, 6]: 0.678 g | Mean Shoot Height [2, 6]: 33.8 cm | Plant Emergence (%) 5 days after planting [2, 7]: 100% | Plant Emergence (%) 5 days after planting [2, 8]: 100% | % Control (Based on root mass relative to infested and uninfested control) [2, 9]: 12% | % Control (Based on shoot height relative to infested and uninfested control) [2, 9]: 49% | Mean Root Mass [2, 9]: 0.490 g | Mean Shoot Height [2, 9]: 27.3 cm | % Control (Based on root mass relative to infested and uninfested control) [2, 10]: 48% | % Control (Based on shoot height relative to infested and uninfested control) [2, 10]: 100% | Mean Root Mass [2, 10]: 0.631 g | Mean Shoot Height [2, 10]: 33.8 cm | Plant Emergence (%) 5 days after planting [2, 11]: 100% | Plant Emergence (%) 5 days after planting [2, 12]: 100% | mortality at 50 ppm [3]: > 70%

CNC(=O)c1cc(Cl)cc(C)c1NC(=O)c1cc(Br)nn1-c1ncccc1Cl [chlorantraniliprole]
% Control (Relative to infested and uninfested solvent blank) ([4]; rate 1 ppm): 49% | % Control (Relative to infested and uninfested solvent blank) ([4]; rate 10 ppm): 63% | Mean Root Length ([4]; rate 1 ppm): 8.4 cm | Mean Root Length ([4]; rate 10 ppm): 9.0 cm

CNC(=O)c1cc(C#N)cc(C)c1NC(=O)c1cc(Br)nn1-c1ncccc1Cl [cyantraniliprole]
% Control (Relative to infested and uninfested solvent blank) ([4]; rate 1 ppm): 19% | % Control (Relative to infested and uninfested solvent blank) ([4]; rate 10 ppm): 93% | Mean Root Length ([4]; rate 1 ppm): 7.1 cm | Mean Root Length ([4]; rate 10 ppm): 10.3 cm
